From patent publication US12655107B2 (The United States of America, as represented by the …, priority 2018, dated 2026)
Like-named read-outs stand apart in the source and are kept apart here.

How the values were obtained:
A549 = assay: MTT cytotoxicity assay, A549; format: cell-based, human
Method: (§1) Cytotoxicity Assays. […] The cells were incubated with the tested compounds for 72 hours in a five-dose assay ranging from 0.01 to 100 μM concentration. After drug treatments, MTT solution was added to test the percentage growth of tumor cells.
(§2) The compounds were incubated with the cells for 72 hours in a five-dose assay ranging from 0.01 to 100 μM concentration. At the end of the incubation, the MTT solution was added to test the percentage growth of tumor cells.
(§3) For the drug treatment experiments, the cancer cells were treated with the compounds (predissolved in DMSO) at a five-dose assay ranging from 0.01 to 100 μM concentration. […] After 4 h incubation, the formazan crystal formed in the well was dissolved with […] of DMSO for optical density reading at 570 nm. The GI50 value was calculated by nonlinear regression analysis (GraphPad Prism).

Huh7 = assay: MTT cytotoxicity assay, Huh7; format: cell-based, human; conditions: Table 1b
Method: as §1, §3

CCRF-CEM = assay: MTT cytotoxicity assay, CCRF-CEM; format: cell-based, human; conditions: 72 h, Table 1b
Method: as §1, §3

MCF-7 = assay: MTT cytotoxicity assay, MCF-7; format: cell-based, human; conditions: Table 7, read-out: GI50 ± SC (μM) MCF-7
Method: as §2, §3

Top1 = target: T1, Top1 (Homo sapiens, UniProt P11387); assay: Top1-mediated DNA cleavage assay; format: biochemical
T1 sequence (P11387 1-765): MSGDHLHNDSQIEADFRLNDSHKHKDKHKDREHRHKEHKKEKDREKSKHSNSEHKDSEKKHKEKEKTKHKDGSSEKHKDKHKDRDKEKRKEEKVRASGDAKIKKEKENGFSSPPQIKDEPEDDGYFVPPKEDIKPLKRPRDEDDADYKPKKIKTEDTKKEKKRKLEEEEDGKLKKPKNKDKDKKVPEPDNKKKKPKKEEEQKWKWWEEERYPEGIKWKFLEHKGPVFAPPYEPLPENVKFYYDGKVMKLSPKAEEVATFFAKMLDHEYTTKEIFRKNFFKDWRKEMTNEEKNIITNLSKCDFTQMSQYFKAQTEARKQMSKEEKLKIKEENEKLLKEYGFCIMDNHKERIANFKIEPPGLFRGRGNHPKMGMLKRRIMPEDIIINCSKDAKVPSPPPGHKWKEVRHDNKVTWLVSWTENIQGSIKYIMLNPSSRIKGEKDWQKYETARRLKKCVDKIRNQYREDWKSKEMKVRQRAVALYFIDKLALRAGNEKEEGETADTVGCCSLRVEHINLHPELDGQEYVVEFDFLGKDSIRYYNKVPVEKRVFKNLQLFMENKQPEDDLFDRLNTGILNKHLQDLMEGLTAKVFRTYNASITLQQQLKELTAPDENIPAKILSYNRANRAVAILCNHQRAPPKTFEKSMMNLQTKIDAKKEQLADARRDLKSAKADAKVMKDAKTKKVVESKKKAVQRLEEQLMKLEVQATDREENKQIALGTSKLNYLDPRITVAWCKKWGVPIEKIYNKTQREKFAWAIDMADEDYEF

[1] = target: T2, Top1-DNA covalent cleavage complexes in HCT116 cells (Homo sapiens, UniProt P11387); assay: Immunocomplex of enzyme to DNA (ICE) assay; format: cell-based; conditions: HCT116, 25, 50 and 100 μM
T2 construct: endogenous in cells; host or cells: HCT116 (human colon cancer)

HCT116 = assay: MTT cytotoxicity assay, HCT116; format: cell-based, human; conditions: 72 h
Method: as §1, §2, §3

DU145 = assay: MTT cytotoxicity assay, DU145; format: cell-based, human; conditions: 72 h
Method: as §1, §2, §3

Tdp1 = Tdp1 (Homo sapiens, UniProt Q9NUW8); assay: Tdp1 inhibition fluorescence assay; format: biochemical; conditions: compounds at 100 μM
Method: Tdp Inhibition. […] The compounds were tested at 100 μM concentration. […] Fluorescence assay. […] Tdp1 solution (20 μL/well, 0.02 μL purified Tdp1 (100 nM) in 10 mM Tris-HCl, pH 7.5, 50 mM KCL, I mM EDTA, 1 mM DTT) was dispensed into wells of a white 384-well plate (NEST). The tested compound solution in DMSO (5 μL) was pinned into assay plates and incubated at room temperature for 30 min. […] Tdp percentage inhibition of the tested compounds was calculated by comparing the rate of increase in fluorescence throughout time for the compound-treated wells to that of DMSO control wells.

[2] = graded relative to CPT at 1 μM, Table 7
[3] = 72 h, Table 1b, read-out: GI50 (μM) A549
[4] = Table 1b, read-out: GI50 (μM) HCT116
[5] = Table 1b, read-out: GI50 (μM) DU145
[6] = 72 h, Table 7, read-out: GI50 ± SC (μM) A-49
[7] = Table 7, read-out: GI50 ± SC (μM) HCT116
[8] = Table 7, read-out: GI50 ± SC (μM) DU145

Chain of Tdp1 (Q9NUW8 whole entry): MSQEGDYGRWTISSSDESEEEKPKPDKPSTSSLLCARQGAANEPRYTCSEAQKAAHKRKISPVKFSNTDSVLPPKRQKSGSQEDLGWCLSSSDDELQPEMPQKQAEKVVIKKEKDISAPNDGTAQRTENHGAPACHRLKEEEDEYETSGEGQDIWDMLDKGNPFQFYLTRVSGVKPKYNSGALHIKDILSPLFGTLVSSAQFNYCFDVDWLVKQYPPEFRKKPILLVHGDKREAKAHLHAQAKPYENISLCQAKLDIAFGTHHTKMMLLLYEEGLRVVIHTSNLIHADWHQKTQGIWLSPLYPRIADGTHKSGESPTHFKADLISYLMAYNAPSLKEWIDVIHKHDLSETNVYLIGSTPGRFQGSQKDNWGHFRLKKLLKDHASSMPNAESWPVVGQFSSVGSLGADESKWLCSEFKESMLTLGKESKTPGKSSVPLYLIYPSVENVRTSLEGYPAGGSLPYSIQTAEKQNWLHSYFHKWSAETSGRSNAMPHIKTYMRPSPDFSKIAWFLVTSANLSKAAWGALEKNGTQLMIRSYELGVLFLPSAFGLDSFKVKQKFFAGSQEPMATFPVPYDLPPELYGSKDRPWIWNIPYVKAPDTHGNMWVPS

Compound	TOP1 inhibition (Top1; [2])	GI50 (A549; [6])	GI50 (HCT116; [7])	GI50 (MCF-7; 72 h)	GI50 (DU145; [8])	further results
CC[C@@]1(O)C(=O)OCc2c1cc1n(c2=O)Cc2cc3ccccc3nc2-1 [Compound 1, camptothecin, reference compound]	++++					GI50 (A549; Homo sapiens, A549, 72 h, Table 7, read-out: GI50 ± SC (μM) A-49): 0.099 ± 0.017 µM; GI50 (Huh7; Homo sapiens, Huh-7, 72 h): 0.099 ± 0.017 µM; GI50 (CCRF-CEM; Homo sapiens, CCRF-CEM): 0.007 ± 0.003 µM; GI50 (MCF-7; Homo sapiens, MCF7, 72 h): 0.012 ± 0.002 µM; TOP1 inhibition (Top1; semi-quantitative score relative to CPT (1) at 1 μM, tested at 0.1-100 μM): ++++ (++++, equal activity); induction of cellular Top1cc [1]: induced the formation of cellular TOP1 cc in a dose-dependent manner
COc1cc2c(=O)n(C)c3c4cc5c(cc4ccc3c2cc1OC)OCO5 [Compound 6, oxynitidine, reference compound]						GI50 (A549; [3]): 39.4 ± 26.2 µM; GI50 (Huh7; 72 h): > 100 µM; GI50 (HCT116; [4]): 74.8 ± 4.36 µM; GI50 (CCRF-CEM): 26.5 ± 5.41 µM; GI50 (DU145; [5]): 64.2 ± 10.9 µM
COc1cc2c(cc1OC)-c1ccc3cc4c(cc3c1N(CCN1CCCC1)C2)OCO4 [Compound 28a, 2,3-Dimethoxy-12-(2-(pyrrolidin-1-yl)ethyl)-12,13-dihydro-[1,3]dioxolo[4′,5′:4,5]benzo[1,2-c]phenanthrdine]						GI50 (A549; [3]): 6.59 ± 1.29 µM; GI50 (Huh7; 72 h): 8.07 ± 1.3 µM; GI50 (HCT116; [4]): 4.25 ± 3.11 µM; TDP1 inhibition (Tdp1): 0%; GI50 (CCRF-CEM): 1.25 ± 0.18 µM; GI50 (DU145; [5]): 2.04 ± 0.41 µM
COc1cc2c(=O)n(CCN(C)S(=O)(=O)C(F)(F)F)c3c4cc5c(cc4ccc3c2cc1OC)OCO5 [Compound 51, N-(2-(2,3-dimethoxy-13-oxo-[1,3]dioxolo[4′5′:4,5]benzo[1,2-c]phenanthridin-12(13H)-yl)ethyl)-1,1,1-trifluoro-N-methylmethanesulfonamide]		42 ± 0.98 µM	86 ± 2.5 µM	35 ± 1.7 µM	65 ± 1.2 µM	
COc1cc2c(=O)n(CCN(C)S(=O)(=O)C3CC3)c3c4cc5c(cc4ccc3c2cc1OC)OCO5 [Compound 52, N-(2-(2,3-dimethoxy-13-oxo-[1,3]dioxolo[4′,5′:4,5]benzo[1,2-c]phenanthridin-12(13H)-yl)ethyl)-N-methylcyclopropanesulfonanide]	+ (+, between 20% and 50% activity)	15 ± 1.5 µM	7.9 ± 0.15 µM	5.8 ± 0.89 µM	10 ± 1.2 µM	
COc1cc2c(=O)n(CCN(C)S(=O)(=O)N3CCCC3)c3c4cc5c(cc4ccc3c2cc1OC)OCO5 [Compound 54, N-(2-(2,3-dimethoxy-13-oxo-[1,3]dioxolo[4,5′:4,5]benzo[1,2-c]phenanthridin-12(13H)-yl)ethyl)-N-methylpyrrolidine-1-sulfonamide]	+ (+, between 20% and 50% activity)	5.3 ± 0.41 µM	2.5 ± 0.18 µM	3.8 ± 0.25 µM	3.1 ± 0.3 µM	
COc1cc2c(=O)n(CCN(C)S(=O)(=O)N3CCOCC3)c3c4cc5c(cc4ccc3c2cc1OC)OCO5 [Compound 55, N-(2-(2,3-dimethoxy-13-oxo-[1,3]dioxolo[4′,5′:4,5]benzo[1,2-c]phenanthridin-12(13H)-yl)ethyl)-N-methylmorpholine-4-sulfonamide]	+ (+, between 20% and 50% activity)	35 ± 2.5 µM	40 ± 1.2 µM	64 ± 0.57 µM	48 ± 1.2 µM	
COc1cc2c(=O)n(CCNS(=O)(=O)C3CC3)c3c4cc5c(cc4ccc3c2cc1OC)OCO5 [Compound 58, N-(2-(2,3-dimethoxy-13-oxo-[1,3]dioxolo[4′,5′:4,5]benzo[1,2-c]phenanthridin-12(13H)-yl)ethyl)cyclopropanesulfonamide]	++ (++, between 50% and 75% activity)	4.3 ± 0.21 µM	5.2 ± 0.13 µM	3 ± 0.63 µM	1.3 ± 0.32 µM	
COc1cc2c(=O)n(CCNS(=O)(=O)N(C)C)c3c4cc5c(cc4ccc3c2cc1OC)OCO5 [Compound 59, N-(2-(2,3-dimethoxy-13-oxo-[1,3]dioxolo[4′,5′:4,5]benzo[1,2-c]phenanthridin-12(13H)-yl)ethyl)dimethylamine-1-sulfonamide]	+ (+, between 20% and 50% activity)	35 ± 0.14 µM	30 ± 2.1 µM	21 ± 1 µM	45 ± 1.2 µM	
COc1cc2c(=O)n(CCNS(=O)(=O)N3CCCC3)c3c4cc5c(cc4ccc3c2cc1OC)OCO5 [Compound 60, N-(2-(2,3-dimethoxy-13-oxo-[1,3]dioxolo[4′,5′:4,5]benzo[1,2-c]phenanthridin-12(13H)-yl)ethyl)pyrrolidine-1-sulfonamide]		61 ± 0.15 µM	34 ± 1.1 µM	38 ± 0.78 µM	79 ± 1 µM	
COc1cc2c(=O)n(CCNS(=O)(=O)N3CCOCC3)c3c4cc5c(cc4ccc3c2cc1OC)OCO5 [Compound 61, N-(2-(2,3-dimethoxy-13-oxo-[1,3]dioxolo[4′,5′:4,5]benzo[1,2-c]phenanthridin-12(13H)-yl)ethyl)morpholine-4-sulfonamide]	++ (++, between 50% and 75% activity)	2.9 ± 0.027 µM	1.1 ± 0.047 µM	0.89 ± 0.12 µM	1.6 ± 0.021 µM	
COc1cc2c(=O)n(CCNP(=O)(OC)OC)c3c4cc5c(cc4ccc3c2cc1OC)OCO5 [Compound 62, Dimethyl(2-(2,3-dimethoxy-13-oxo-[1,3]dioxolo[4′,5′:4,5]benzo[1,2-c]phenanthridin-12(13H)-yl)ethyl)phosphoramidate]		41 ± 2 µM	51 ± 1.5 µM	48 ± 1.9 µM	39 ± 2.2 µM	
COc1cc2c(=O)n(CCNC(=O)C3CC3)c3c4cc5c(cc4ccc3c2cc1OC)OCO5 [Compound 63, N-(2-(2,3-dimethoxy-13-oxo-[1,3]dioxolo[4,5′:4,5]benzo[1,2-c]phenanthridin-12(13H)-yl)ethyl)cyclopropanecarboxamide]	+ (+, between 20% and 50% activity)	1.3 ± 0.006 µM	5.3 ± 0.11 µM	2.2 ± 0.27 µM	7.8 ± 0.52 µM	
Dimethyl(2-(2,3-dimethoxy-13-oxo-[1,3]dioxolo[4′,5′:4,5]benzo[1,2-c]phe-nanthridin-12(13H)-yl)ethyl)(methyl)phosphoramidate [Compound 56]	++ (++, between 50% and 75% activity)	14 ± 1.4 µM	9.2 ± 0.14 µM	10 ± 0.54 µM	5.3 ± 0.21 µM	
N-(2-(2,3-dimethoxy-13-oxo-[1,3]dioxolo[4′,5′:4,5]benzo[1,2-c]phenanthridin-12(13H)-yl)ethyl)-N-methyldiethylamine-1-sulfonamide [Compound 53]	+ (+, between 20% and 50% activity)	7.9 ± 0.23 µM	0.96 ± 0.04 µM	1.5 ± 0.15 µM	15 ± 0.59 µM	
